Experimental data from ChEMBL document CHEMBL4610068, “Diterpenoids from the Root Bark of Pinus massoniana and Evaluation of Their Phosphodiesterase Type 4D Inhibitory Activity” (J Nat Prod, 2020).

Biological target: 3',5'-cyclic-AMP phosphodiesterase 4D (Homo sapiens, UniProt Q08499)
Assay: Inhibition of human PDE4D catalytic domain (86 to 413 residues) expressed in Escherichia coli BL21 (DE3) cells using [3H]cAMP as substrate measured after 30 mins by scintillation proximity assay

Sequence of 3',5'-cyclic-AMP phosphodiesterase 4D (Q08499 whole entry, the tested form may be a part): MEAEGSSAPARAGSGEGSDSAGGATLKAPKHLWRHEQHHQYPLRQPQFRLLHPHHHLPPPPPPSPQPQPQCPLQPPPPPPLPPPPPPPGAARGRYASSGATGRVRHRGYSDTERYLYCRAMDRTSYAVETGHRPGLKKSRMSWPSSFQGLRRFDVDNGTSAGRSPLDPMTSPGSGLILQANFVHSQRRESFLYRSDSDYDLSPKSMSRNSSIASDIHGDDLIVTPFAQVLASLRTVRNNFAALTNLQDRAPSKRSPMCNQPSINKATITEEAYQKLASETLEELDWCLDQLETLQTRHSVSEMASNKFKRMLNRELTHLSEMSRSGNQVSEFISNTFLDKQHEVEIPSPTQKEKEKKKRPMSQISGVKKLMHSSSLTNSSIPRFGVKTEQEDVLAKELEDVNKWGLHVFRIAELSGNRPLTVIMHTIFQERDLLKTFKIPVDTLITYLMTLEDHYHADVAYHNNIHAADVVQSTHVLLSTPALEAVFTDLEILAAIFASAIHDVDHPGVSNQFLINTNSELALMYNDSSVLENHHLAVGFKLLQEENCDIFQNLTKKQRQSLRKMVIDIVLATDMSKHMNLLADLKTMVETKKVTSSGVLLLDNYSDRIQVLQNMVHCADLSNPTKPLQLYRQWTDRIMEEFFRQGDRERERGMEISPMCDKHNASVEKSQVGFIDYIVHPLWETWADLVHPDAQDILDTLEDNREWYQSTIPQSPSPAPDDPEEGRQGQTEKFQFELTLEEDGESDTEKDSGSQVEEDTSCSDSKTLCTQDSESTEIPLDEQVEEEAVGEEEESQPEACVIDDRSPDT

**Q.** For `C=C(C)c1ccc2c(c1)CC[C@H]1[C@](C)(C(=O)O)CCC[C@]21C`, which IC50 is on record?
**A.** 3.3 µM

**Q.** Which IC50 does the source give for `CC(C)C1=CC[C@H]2C(=CC[C@@H]3[C@]2(C)CCC[C@@]3(C)C(=O)O)C1=O` here?
**A.** 2.8 µM
